# Assays:
# Type in all cases: biochemical, Gluconobacter oxydans UV-10
# L-sorbose dehydrogenase [1] = biological target: T1, L-sorbose dehydrogenase (Gluconobacter oxydans, UniProt Q47944); test: Effect of metal ions on the enzyme activity; conditions: for Effect of metal ion on the enzyme activity (in words): summary of Table 6
# Procedure: (§1) Enzyme assay was performed at 25° C. by measuring the decrease of absorbance at 600 nm of DCIP spectrophotometrically. One unit of enzyme activity was defined as the amount of enzyme which catalyzed the reduction of 1 μmole of DCIP per minute. The extinction coefficient of DCIP at pH 7.0 was taken as 14.5 mM^-1. The basal reaction mixture is shown below. The mixture was prepared just before the assay.
# (§2) A cuvette with 1 cm light path contained 0.4 ml of basal mixture, 0.1 ml of 1M L-sorbose, enzyme solution, and water in a final volume of 0.51 ml. A reference cuvette contains all components except the substrate. The reaction was initiated by the addition of the substrate. Enzyme activity was measured as the initial reduction rate of DCIP.
# Using the assay procedure described under (1) above, the effect of various metal ions on the enzyme activity was examined. Co^2+ and Fe^3+ were stimulative and Cu^2+ was inhibitory.
# L-sorbose dehydrogenase [2] = biological target: T1, L-sorbose dehydrogenase; test: biochemical; conditions: for Effect of inhibitor on the enzyme activity (in words): summary of Table 7
# Procedure: as §1, with “The extinction coefficient of DCIP at pH 7.0 was taken as 14.5 mM^-1.” left out
# as §2
# L-sorbose dehydrogenase [3] = biological target: T1, L-sorbose dehydrogenase; conditions: 0.1 ml of 1M substrate solution instead of L-sorbose, DCIP, 25° C., pH 7.0
# Procedure: as §1, §2
# Substrate specificity of the enzyme was determined using the same enzyme assay method as described in the above (1) except that 0.1 ml of each of the various substrate solutions (1M) was used instead of L-sorbose.
# L-sorbose dehydrogenase [4] = biological target: T1, L-sorbose dehydrogenase; test: Measurement of the Km value for L-sorbose; conditions: L-sorbose 0.5 mM to 320 mM
# Procedure: as §1, §2
# In the procedure described under (2) above, the velocities of oxidising reactions with varying concentrations of L-sorbose from 0.5 mM to 320 mM were measured to determine the Km value for L-sorbose. The maximum reaction velocity was found at the substrate concentration of about 200 mM. Apparent Michaelis constant (Km) was calculated to be 102±10 mM with DCIP as an electron acceptor.
# T1 sequence (Q47944 whole entry): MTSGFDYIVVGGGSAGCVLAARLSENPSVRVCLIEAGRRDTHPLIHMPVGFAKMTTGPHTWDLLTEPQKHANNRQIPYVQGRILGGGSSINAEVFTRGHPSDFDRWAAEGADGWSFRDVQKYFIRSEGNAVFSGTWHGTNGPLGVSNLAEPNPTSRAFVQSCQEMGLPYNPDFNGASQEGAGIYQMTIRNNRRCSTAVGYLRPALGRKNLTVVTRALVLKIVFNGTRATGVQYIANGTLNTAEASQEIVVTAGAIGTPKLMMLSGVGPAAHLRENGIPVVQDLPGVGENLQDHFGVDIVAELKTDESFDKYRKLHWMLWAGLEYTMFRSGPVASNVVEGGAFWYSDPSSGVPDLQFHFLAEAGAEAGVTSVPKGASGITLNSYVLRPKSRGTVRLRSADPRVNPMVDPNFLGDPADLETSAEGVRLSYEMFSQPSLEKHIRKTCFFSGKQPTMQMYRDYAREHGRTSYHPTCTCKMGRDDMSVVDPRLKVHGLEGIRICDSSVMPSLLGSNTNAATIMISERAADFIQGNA
compound,measurement,setting,value
O.O.[Na+].[Na+].[O]=[Mo](=[O])([O-])[O-] [Na2 MoO4 · 2H2 O],Relative activity (%),L-sorbose dehydrogenase [1]; metal 0.3 mM,86.1%
same,Relative activity (%),L-sorbose dehydrogenase [1]; metal 1.06 mM,69.6%
[Cu+2] [Cu^2+],Effect of metal ion on the enzyme activity (in words),L-sorbose dehydrogenase [1],inhibitory
O.O.O.O.O.O.[Cl-].[Cl-].[Co+2] [CoC1 · 6H2O],Relative activity (%),L-sorbose dehydrogenase [1]; metal 0.4 mM,109.2%
same,Relative activity (%),L-sorbose dehydrogenase [1]; metal 0.8 mM,118.4%
O.O.[Cl][Cu][Cl] [CuCl2 · 2H2 O],Relative activity (%),L-sorbose dehydrogenase [1]; metal 0.4 mM,0%
O=C(O)CN(CCN(CC(=O)O)CC(=O)O)CC(=O)O [EDTA],inhibition at 940 µM,L-sorbose dehydrogenase [2],0%
same,inhibition at 5200 µM,L-sorbose dehydrogenase [2],13.3%
O.O=[N+]([O-])[O-].O=[N+]([O-])[O-].[Cu+2] [Cu(NO3)2 · H2 O],Relative activity (%),L-sorbose dehydrogenase [1]; metal 0.3 mM,2.27%
[Co+2] [Co^2+],Effect of metal ion on the enzyme activity (in words),L-sorbose dehydrogenase [1],stimulative
O.O.O.O.O.O=S(=O)([O-])[O-].[Cu+2] [CuSO4 · 5H2 O],Relative activity (%),L-sorbose dehydrogenase [1]; metal 0.08 mM,30.9%
TiCl,Relative activity (%),L-sorbose dehydrogenase [1]; metal 0.4 mM,100%
same,Relative activity (%),L-sorbose dehydrogenase [1]; metal 0.8 mM,100%
same,Relative activity (%),L-sorbose dehydrogenase [1]; metal 1.8 mM,100%
O.O.O.O.O.O.[Cl-].[Cl-].[Mg+2] [MgCl2 · 6H2 O],Relative activity (%),L-sorbose dehydrogenase [1]; metal 0.8 mM,83.3%
O.O=S(=O)([O-])[O-].[Mn+2] [MnSO4 · H2 O],Relative activity (%),L-sorbose dehydrogenase [1]; metal 0.4 mM,100%
O=C(O)CI [Mono-Iodo acetate],inhibition at 1850 µM,L-sorbose dehydrogenase [2],0%
same,inhibition at 4240 µM,L-sorbose dehydrogenase [2],34.6%
same,inhibition at 9370 µM,L-sorbose dehydrogenase [2],68.5%
same,Effect of inhibitor on the enzyme activity (in words),L-sorbose dehydrogenase [2],inhibited the enzyme activity partially
O=S(=O)([O-])[O-].[Cu+2] [CuSO4],Relative activity (%),L-sorbose dehydrogenase [1]; metal 0.8 mM,0%
O.O.O.O.O.O.O.O=S(=O)([O-])[O-].[Mg+2] [MgSO4 · 7H2 O],Relative activity (%),L-sorbose dehydrogenase [1]; metal 0.4 mM,100%
same,Relative activity (%),L-sorbose dehydrogenase [1]; metal 0.8 mM,100%
Fe(SO4)3 .multidot. xH2 O,Relative activity (%),L-sorbose dehydrogenase [1]; metal 0.4 mM,121.3%
same,Relative activity (%),L-sorbose dehydrogenase [1]; metal 0.9 mM,106.4%
[Ca+2].[Cl-].[Cl-] [CaCl2],Relative activity (%),L-sorbose dehydrogenase [1]; metal 0.4 mM,100%
same,Relative activity (%),L-sorbose dehydrogenase [1]; metal 0.8 mM,100%
O=C([O-])[C@@H](O)[C@H](O)[C@@H](O)[C@H](O)CO.O=C([O-])[C@@H](O)[C@H](O)[C@@H](O)[C@H](O)CO.[Ca+2] [Ca-Idonate],Relative enzyme activity (%),L-sorbose dehydrogenase [3],0%
C=C[C@H]1C[N@@]2CC[C@H]1C[C@H]2[C@H](O)c1ccnc2ccc(OC)cc12 [Quinine],inhibition at 1850 µM,L-sorbose dehydrogenase [2],0%
same,inhibition at 4240 µM,L-sorbose dehydrogenase [2],30.5%
same,Effect of inhibitor on the enzyme activity (in words),L-sorbose dehydrogenase [2],inhibited the enzyme activity partially
O=C(O)CF [Sodium Fluoro acetate],inhibition at 1850 µM,L-sorbose dehydrogenase [2],0%
same,inhibition at 4240 µM,L-sorbose dehydrogenase [2],8.6%
same,inhibition at 9370 µM,L-sorbose dehydrogenase [2],26.5%
same,Effect of inhibitor on the enzyme activity (in words),L-sorbose dehydrogenase [2],inhibited the enzyme activity partially
[N-]=[N+]=[N-] [Sodium Azide],inhibition at 1850 µM,L-sorbose dehydrogenase [2],0%
same,inhibition at 4240 µM,L-sorbose dehydrogenase [2],0%
O.O.O.O.O.O.O.O=[As]([O-])([O-])O.[Na+].[Na+] [Na2 HAs · O4 · 7H2 O],Inhibition (%),L-sorbose dehydrogenase [2]; inhibitor 1.85 mM,0%
same,Inhibition (%),L-sorbose dehydrogenase [2]; inhibitor 4.24 mM,0%
[F-].[Na+] [Sodium Fluoride],Inhibition (%),L-sorbose dehydrogenase [2]; inhibitor 1.85 mM,10.3%
same,Inhibition (%),L-sorbose dehydrogenase [2]; inhibitor 4.24 mM,10.3%
same,Inhibition (%),L-sorbose dehydrogenase [2]; inhibitor 9.37 mM,22.1%
same,Effect of inhibitor on the enzyme activity (in words),L-sorbose dehydrogenase [2],inhibited the enzyme activity partially
O.O.O.O.[Cl][Mn][Cl] [MnCl2 · 4H2 O],Relative activity (%),L-sorbose dehydrogenase [1]; metal 0.4 mM,100%
same,Relative activity (%),L-sorbose dehydrogenase [1]; metal 0.9 mM,98.3%
[Fe+3] [Fe^3+],Effect of metal ion on the enzyme activity (in words),L-sorbose dehydrogenase [1],stimulative
O.O.O.O.O.O.O.O=S(=O)([O-])[O-].[Zn+2] [ZnSO4 · 7H2 O],Relative activity (%),L-sorbose dehydrogenase [1]; metal 0.4 mM,100%
same,Relative activity (%),L-sorbose dehydrogenase [1]; metal 0.9 mM,100%
CCN1C(=O)C=CC1=O [N-Ethyl-maleimide],inhibition at 1850 µM,L-sorbose dehydrogenase [2],0%
same,inhibition at 4240 µM,L-sorbose dehydrogenase [2],0%
O.O.O.O.O.O.O=S(=O)([O-])[O-].[Ni+2] [NiSO4 · 6H2 O],Relative activity (%),L-sorbose dehydrogenase [1]; metal 0.4 mM,100%
same,Relative activity (%),L-sorbose dehydrogenase [1]; metal 0.9 mM,100%
"O=C(O)c1cc[c]([Hg][Cl])cc1 [PCMB, p-chloro-mercuri-benzoate]",Inhibition (%),L-sorbose dehydrogenase [2]; inhibitor 0.02 mM,0%
same,Inhibition (%),L-sorbose dehydrogenase [2]; inhibitor 0.04 mM,0%
same,Inhibition (%),L-sorbose dehydrogenase [2]; inhibitor 0.17 mM,0%
"O=C(CO)[C@@H](O)[C@H](O)[C@@H](O)CO [Sorbose, L-sorbose]",Substrate concentration of maximum reaction velocity,L-sorbose dehydrogenase [4],about 200 mM

# Reference: patent publication US4916069A, “Enzyme and process for producing the same” (priority 1986, dated 1990)
